Measured values as given in patent US20230285405A1, “Pharmaceuticals for Treating or Preventing Nidoviruses and Picornaviruses” (priority 2020, published 2023).
Counter-ions that a name gives are not always drawn. Like-named read-outs stand apart in the source and are kept apart here.

Tests used:
A549-mRuby cells = assay: Drug screening: effect on cell growth (cell number day 4 / day 0); conditions: 10 μM drug; for Growth_1: number of cells at day 4 divided by number of cells at day 0 / toxic_1: repeat #1; for Growth_2: number of cells at day 4 divided by number of cells at day 0 / toxic_2: repeat #2
Outline: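 Growth was scored as day 4/day 0 cell count from images of OC43-infected (MOI 0.3) A549-mRuby nuclear-reporter cells. Compounds were added at 10 μM final after a 1 h infection at 33° C, followed by 4 days of culture at 33° C in two independent screens.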

SARS-CoV-2 = assay: microbe, parasite or virus in culture; assay type: cell-based, SARS-CoV-2 (nCoV/Washington/1/2020); conditions: for EC50: read-out: EC50 SARS2
OC43 [1] = assay: Drug screening: OC43 nucleoprotein staining in infected A549-mRuby cells; assay type: cell-based, human beta coronavirus OC43; conditions: for activity at 10 µM: Betacoronavirus 1, OC43, 96 h
Outline: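 Repurposing screen: drugs at 10 μM final added 1 h after OC43 infection (MOI 0.3) of H2B-mRuby A549 cells, 4-day incubation at 33° C. Cell counts imaged at day 0 and day 4; nucleoprotein staining per cell normalized to untreated infected wells, hit threshold >3 SD in duplicate screens, non-toxic.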

OC43 [2] = assay: Dose-response analysis of OC43 infection; assay type: cell-based, human beta coronavirus OC43
Method: Dose-response analysis of OC43 infection was done similarly to the drug screening, except cells were seeded at a concentration of 5,000 cells per well and the media contained 2% BCS instead of 10% BCS. OC43 staining was performed 2 days after infection and analyzed similarly to what was described for the drug screening. A sigmoid fit was used to extract EC50 values using Matlab.

[3] = 10 μM drug, MOI 0.3, 4 days, OC43 staining normalized to no-drug controls, mean of the two screen repeats
[4] = 10 μM drug, MOI 0.3, 4 days, normalized to no-drug controls in the same plate, repeat #1
[5] = 10 μM drug, MOI 0.3, 4 days, normalized to no-drug controls in the same plate, repeat #2
[6] = A549-mRuby cells, staining 2 days after infection, read-out: EC50 OC43
[7] = Severe acute respiratory syndrome coronavirus 2
[8] = 10 μM drug, MOI 0.3, 4 days, OC43 staining normalized to no-drug controls, mean of the two screen repeats, read-out: OC43_mean
[9] = 10 μM drug, MOI 0.3, 4 days, normalized to no-drug controls in the same plate, repeat #1, read-out: OC43_1: % staining of OC43 in screen repeat #1
[10] = 10 μM drug, MOI 0.3, 4 days, normalized to no-drug controls in the same plate, repeat #2, read-out: OC43_2: % staining of OC43 in screen repeat #2
[11] = Betacoronavirus 1, OC43, 48 h, read-out: EC50 OC43, A549-mRuby cells, staining 2 days after infection

Compound | Growth_1: number of cells at day 4 divided by number of cells at day 0 (A549-mRuby cells) | toxic_1 (A549-mRuby cells) | Growth_2: number of cells at day 4 divided by number of cells at day 0 (A549-mRuby cells) | toxic_2 (A549-mRuby cells) | hit_1 (OC43 [1]; 10 μM drug, repeat #1) | hit_2 (OC43 [1]; 10 μM drug, repeat #2) | EC50 (SARS-CoV-2; [7]) | activity at 10 µM (OC43 [1]; [8]) | activity at 10 µM (OC43 [1]; [9]) | activity at 10 µM (OC43 [1]; [10]) | EC50 (OC43 [2]; [11]) | also measured
C[C@@H]1[C@H](O)[C@@H](C)/C=C/C=C/C=C/C=C/C=C/C=C/C=C/[C@H](O[C@@H]2O[C@H](C)[C@@H](O)[C@H](N)[C@@H]2O)C[C@@H]2O[C@](O)(C[C@@H](O)C[C@@H](O)[C@H](O)CC[C@@H](O)C[C@@H](O)CC(=O)O[C@H]1C)C[C@H](O)[C@H]2C(=O)O [Amphotericin B] | 4.3 | 0 | 5.8 | 0 | 1 | 1 |  |  |  |  |  | inhibition of SARS-CoV-2 infection (in words) (SARS-CoV-2): did not inhibit SARS-CoV-2 infection; EC50 (SARS-CoV-2): > 1000 nM; OC43_mean (OC43 [1]; [3]): 6.6%; OC43_1: % staining of OC43 in screen repeat #1 (OC43 [1]; [4]): 1.5%; OC43_2: % staining of OC43 in screen repeat #2 (OC43 [1]; [5]): 11.8%; EC50 (OC43 [2]; [6]): 40 nM
CN1CCCC(n2nc(Cc3ccc(Cl)cc3)c3ccccc3c2=O)CC1.O (centres unmarked) [Azelastine HCl] | 4.1 | 0 | 3.2 | 0 | 1 | 1 | 2400 nM | 19.1% | 19.6% | 18.5% | 3700 nM | inhibition of SARS-CoV-2 infection (in words) (SARS-CoV-2): inhibits; inhibition of OC43 infection (in words) (OC43 [2]; dose-response): inhibits
CCCCOC(=O)c1ccc(N)cc1 [Butamben] | 3.9 | 0 | 4.7 | 0 | 1 | 1 | > 10000 nM | 4.9% | 3.8% | 6.1% | 3100 nM | 
CCCCOC(=O)c1ccc(O)cc1 [Butylparaben] | 3.3 | 0 | 3.6 | 0 | 1 | 1 | > 10000 nM | 5.2% | 7% | 3.5% | 1700 nM | 
COc1cc2c(Oc3ccc4[nH]c(C)cc4c3F)ncnc2cc1OCCCN1CCCC1 [Cediranib (AZD2171), Cediranib] | 2.6 | 0 | 2.4 | 0 | 1 | 1 | 3600 nM | 19% | 17.8% | 20.2% | 520 nM | EC50 (OC43 [2]; read-out: EC50 OC43, A549-mRuby cells, staining 2 days after infection): 500 nM
COc1ccc2cc1Oc1ccc(cc1)C[C@H]1c3c(cc4c(c3Oc3cc5c(cc3OC)CCN(C)[C@@H]5C2)OCO4)CCN1C [Cepharanthine] | 4.3 | 0 | 4.7 | 0 | 1 | 1 | 130 nM | 20.3% | 28.5% | 12.1% | 770 nM | 
COC(=O)N[C@H](C(=O)N1CCC[C@H]1c1ncc(-c2ccc3c(c2)O[C@@H](c2ccccc2)n2c-3cc3cc(-c4cnc([C@@H]5CCCN5C(=O)[C@@H](NC(=O)OC)C(C)C)[nH]4)ccc32)[nH]1)C(C)C [Elbasvir] | 4.7 | 0 | 5.3 | 0 | 1 | 1 | > 10000 nM | 20.1% | 18.8% | 21.4% | 170 nM | inhibition of SARS-CoV-2 infection (in words) (SARS-CoV-2): did not inhibit SARS-CoV-2 infection
OCCN1CCN(CC/C=C2/c3ccccc3Sc3ccc(C(F)(F)F)cc32)CC1 [Flupenthixol dihydrochloride] |  |  |  |  |  |  |  |  |  |  |  | EC50 (SARS-CoV-2): 560 nM; EC50 (OC43 [2]; read-out: EC50 OC43): 1800 nM
CN(C)CCCN1c2ccccc2CCc2ccccc21.O [Imipramine HCl] | 4.0 | 0 | 4.2 | 0 | 1 | 1 |  |  | 6.7% | 22.3% | 6000 nM | activity at 10 µM (OC43 [1]; read-out: OC43_mean, 10 μM drug, MOI 0.3, 4 days, OC43 staining normalized to no-drug controls, mean of the two screen repeats): 14.5%
CCC(CC)COC(=O)[C@H](C)N[P@](=O)(OC[C@H]1O[C@@](C#N)(c2ccc3c(N)ncnn23)[C@H](O)[C@@H]1O)Oc1ccccc1 [Remdesivir] |  |  |  |  |  |  | 100 nM |  |  |  |  | EC50 (OC43 [2]; [6]): 960 nM; EC50 (OC43 [2]; Betacoronavirus 1, OC43, 48 h, A549-mRuby cells, staining 2 days after infection, read-out: EC50 OC43): 900 nM
Cc1ccc(O)c([C@H](CCN(C(C)C)C(C)C)c2ccccc2)c1.O=C(O)C(O)C(O)C(=O)O [Tolterodine tartrate] | 5.0 | 0 | 5.1 | 0 | 1 | 1 |  | 16.6% | 21.7% | 11.6% | 7000 nM | 
CC(CN(C)C)CN1c2ccccc2CCc2ccccc21 (centres unmarked) [Trimipramine maleate] |  |  |  |  |  |  | 1500 nM |  |  |  | 3800 nM | 
Erythromycin Cyclocarbonate | 5.7 | 0 | 6.0 | 0 | 1 | 1 |  |  |  |  |  | OC43_mean (OC43 [1]; [3]): 18.9%; OC43_1: % staining of OC43 in screen repeat #1 (OC43 [1]; [4]): 16.7%; OC43_2: % staining of OC43 in screen repeat #2 (OC43 [1]; [5]): 21.1%; EC50 (OC43 [2]; [6]): > 10000 nM
